Test results taken from PubChem BioAssay AID1963850 (Molecular Pharmacology Branch, DTP, NCI, 2024).

System: 192522-019-R-J2-PDC complex tumor spheroid viability
Experiment: Anticancer human tumor 192522-019-R-J2-PDC patient-derived colon adenocarcinoma cell line growth inhibition [POLQ]
Conditions: for IC50: curve of first compound; for viability, T/C: stronger effect = lower value
Procedure: Multicellular complex tumor spheroid response to Polymerase (POL) inhibitors (novobiocin, ART-558, RP6685) in combination with a variety of drugs and investigational agents in selected tumor cell lines
The POL inhibitors (novobiocin, ART-558, and RP6685) were evaluated both individually and in combination with standard of care and investigational anticancer small molecules within a complex spheroid model of solid tumors. . Complex spheroids include a stromal component modeled by human endothelial cells (HUVEC) and fibroblasts modeled by human mesenchymal stem cells (MSCs). The concentration ranges selected for each drug and investigational agent were based upon clinically achievable concentrations if the clinical Cmax of the agent was known.
Compounds. The drugs and investigational agents: novobiocin (NSC847541), ART-558 (NSC835418), RP-6685 (NSC848927), peposertib (NSC802822), ceralasertib (NSC780249), elimusertib (NSC800525), camonsertib (NSC841442), AZD-1390 (NSC803789), olaparib (NSC753686), talazoparib (NSC767125), rucaparib (NSC756644), sotorasib (NSC818433), MRTX-1133 (NSC836407), SN-38 (NSC673596), topotecan (NSC609699), epotoside (NSC141540), doxorubicin (NSC123127), gemcitabine (NSC613327), 5-fluorouracil (NSC19893), paclitaxel (NSC125973), vemurafenib (NSC761431), MSA-2 (NSC828583), SN-011 (NSC837082), adavosertib (NSC754352), prexasertib (NSC758257), carboplatin (NSC241240) and oxaliplatin (NSC266046), were obtained from the National Cancer Institute (NCI) Developmental Therapeutics Program Chemical Repository (21). The FDA-approved anticancer drug set is available from the Developmental Therapeutics Program at https://dtp.cancer.gov/organization/dscb/obtaining/. […] The stock solutions were prepared in dimethyl sulfoxide (DMSO, Sigma-Aldrich, St. Louis, MO, cat. D2650), except for the platinum compounds which were prepared in saline (Quality Biological, Gaithersburg, MD, cat. 114-055-101), at 800-fold the tested concentration and stored at -70 degrees C prior to their use. All drugs and investigational agents were tested over a range starting from a high concentration at or near the clinical Cmax and decreasing in half-log increments. If the clinical Cmax for an agent had not been determined, the highest concentration tested was 10 microM, except for SN-38, which was tested at a high concentration of 1 microM.
Cell Culture. All cells were maintained in an incubator at 37 degrees C and 5% CO2 with 95% humidity. The PDC lines were cultured according to standard operating procedures established by the NCI PDMR (https://pdmr.cancer.gov). Table 3 of the manuscript, lists the cell lines along with the number of the three cell types plated to form the mct-spheroids and media for tumor cell growth. After thawing, all PDC lines, except 997537-175-T-J1-PDC and 415267-285-R-J2-PDC, were cultured in Matrigel-coated flasks prepared with a working solution of 1X Ham's F-12 nutrient mix, without supplementation (Thermo Fisher Scientific, cat. 11765054), 100 U/mL penicillin-streptomycin (Thermo Fisher Scientific, cat. 15140122), and 2.5% Matrigel (Corning Inc., Corning, NY, cat. 354248) for the first three passages. The two PDC lines 997537-175-T-J1-PDC and 415267-285-R-J2-PDC were cultured on uncoated flasks. The 857933-349-R-J2-PDC line was cultured in 6C/Colon 1B media containing advanced DMEM/F-12 (Thermo Fisher Scientific, cat. 12634028), 10 mM HEPES (Thermo Fisher Scientific, cat. 15630080), 1X GlutaMAX supplement (Thermo Fisher Scientific, cat. 35050061), 0.1 mg/mL primocin (InvivoGen, San Diego, CA, cat. ant-pm-2), 10% defined fetal bovine serum, heat inactivated (HyClone Laboratories Inc., Logan, UT, cat. SH30070.03HI), 50% L-WRN conditioned media (ATCC, cat. CRL-3276), 1.25 mM N-Acetyl-L-cysteine (Sigma-Aldrich, cat. A9165), 10 mM nicotinamide (Sigma-Aldrich, cat. N0636), 1X B-27 supplement (Thermo Fisher Scientific, cat. 17504044), 1X N-2 supplement (Thermo Fisher Scientific, cat. […]

[1] = second compound 0.0316 µM, first compound 0.0316 µM
[2] = second compound 0.0316 µM, first compound 0.1 µM
[3] = second compound 0.0316 µM, first compound 0.316 µM
[4] = second compound 0.0316 µM, first compound 1 µM
[5] = second compound 0.0316 µM, first compound 3.16 µM
[6] = second compound 0.0316 µM, first compound 10 µM
[7] = second compound 0.1 µM, first compound 0.0316 µM
[8] = second compound 0.1 µM, first compound 0.1 µM
[9] = second compound 0.1 µM, first compound 0.316 µM
[10] = second compound 0.1 µM, first compound 1 µM
[11] = second compound 0.1 µM, first compound 3.16 µM
[12] = second compound 0.1 µM, first compound 10 µM
[13] = second compound 0.316 µM, first compound 0.0316 µM
[14] = second compound 0.316 µM, first compound 0.1 µM
[15] = second compound 0.316 µM, first compound 0.316 µM
[16] = second compound 0.316 µM, first compound 1 µM
[17] = second compound 0.316 µM, first compound 3.16 µM
[18] = second compound 0.316 µM, first compound 10 µM
[19] = second compound 1 µM, first compound 0.0316 µM
[20] = second compound 1 µM, first compound 0.1 µM
[21] = second compound 1 µM, first compound 0.316 µM
[22] = second compound 1 µM, first compound 1 µM
[23] = second compound 1 µM, first compound 3.16 µM
[24] = second compound 1 µM, first compound 10 µM
[25] = second compound 3.16 µM, first compound 0.0316 µM
[26] = second compound 3.16 µM, first compound 0.1 µM
[27] = second compound 3.16 µM, first compound 0.316 µM
[28] = second compound 3.16 µM, first compound 1 µM
[29] = second compound 3.16 µM, first compound 3.16 µM
[30] = second compound 3.16 µM, first compound 10 µM
[31] = second compound 10 µM, first compound 0.0316 µM
[32] = second compound 10 µM, first compound 0.1 µM
[33] = second compound 10 µM, first compound 0.316 µM
[34] = second compound 10 µM, first compound 1 µM
[35] = second compound 10 µM, first compound 3.16 µM
[36] = second compound 10 µM, first compound 10 µM
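Further: spheroids exposed to drugs for seven days before reading.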
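Wherever viability, T/C is given: 100% = DMSO vehicle control viability in luminescence.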

Q: Which results are given for `Nc1ccn(C2OC(CO)C(O)C2(F)F)c(=O)n1` (centres undefined) + COC1C(OC(N)=O)C(O)C(Oc2ccc3c(O)c(NC(=O)c4ccc(O)c(CC=C(C)C)c4)c(=O)oc3c2C)OC1(C)C?
A: IC50 (second compound 0.0316 µM): > 10 µM; IC50 (second compound 0.1 µM): > 10 µM; IC50 (second compound 0.316 µM): > 10 µM; IC50 (second compound 1 µM): > 10 µM; IC50 (second compound 3.16 µM): > 10 µM; IC50 (second compound 10 µM): > 10 µM; viability, T/C [1]: 98.8%; viability, T/C [2]: 72.9%; viability, T/C [3]: 75.7%; viability, T/C [4]: 63.5%; viability, T/C [5]: 66%; viability, T/C [6]: 53.9%; viability, T/C [7]: 95.6%; viability, T/C [8]: 80.1%; viability, T/C [9]: 76.5%; viability, T/C [10]: 66%; viability, T/C [11]: 58%; viability, T/C [12]: 57.3%; viability, T/C [13]: 90.2%; viability, T/C [14]: 79.7%; viability, T/C [15]: 72.6%; viability, T/C [16]: 62.4%; viability, T/C [17]: 60.3%; viability, T/C [18]: 59.5%; viability, T/C [19]: 86.1%; viability, T/C [20]: 84.9%; viability, T/C [21]: 73.9%; viability, T/C [22]: 72%; viability, T/C [23]: 56.2%; viability, T/C [24]: 58.4%; viability, T/C [25]: 91.9%; viability, T/C [26]: 87.3%; viability, T/C [27]: 74.8%; viability, T/C [28]: 62.9%; viability, T/C [29]: 62.6%; viability, T/C [30]: 53.5%; viability, T/C [31]: 95.8%; viability, T/C [32]: 89.4%; viability, T/C [33]: 75.7%; viability, T/C [34]: 65.1%; viability, T/C [35]: 66.9%; viability, T/C [36]: 58.7%

Q: How did the IC50 (second compound 0.0316 µM) turn out when `O=C(c1cc(Cc2n[nH]c(=O)c3ccccc23)ccc1F)N1CCN(C(=O)C2CC2)CC1` + COC1C(OC(N)=O)C(O)C(Oc2ccc3c(O)c(NC(=O)c4ccc(O)c(CC=C(C)C)c4)c(=O)oc3c2C)OC1(C)C was run?
A: > 10 µM

Q: And the IC50 (second compound 0.1 µM)?
A: > 10 µM

Q: What about the IC50 (second compound 0.316 µM) of the same compound?
A: > 10 µM

Q: What about the IC50 (second compound 1 µM) of the same compound?
A: > 10 µM

Q: And the IC50 (second compound 3.16 µM)?
A: > 10 µM

Q: What about the IC50 (second compound 10 µM) of the same compound?
A: > 10 µM

Q: And the viability, T/C [1]?
A: 113%

Q: What about the viability, T/C [2] of the same compound?
A: 95.1%

Q: What about the viability, T/C [3] of the same compound?
A: 110%

Q: What about the viability, T/C [4] of the same compound?
A: 93%

Q: And the viability, T/C [5]?
A: 102%

Q: And the viability, T/C [6]?
A: 104%

Q: And the viability, T/C [7]?
A: 105%

Q: What about the viability, T/C [8] of the same compound?
A: 102%

Q: What about the viability, T/C [9] of the same compound?
A: 96.2%

Q: What about the viability, T/C [10] of the same compound?
A: 98.2%

Q: And the viability, T/C [11]?
A: 101%

Q: And the viability, T/C [12]?
A: 97.1%

Q: And the viability, T/C [13]?
A: 99%

Q: And the viability, T/C [14]?
A: 98.9%

Q: What about the viability, T/C [15] of the same compound?
A: 95.8%

Q: And the viability, T/C [16]?
A: 97%

Q: And the viability, T/C [17]?
A: 105%

Q: What about the viability, T/C [18] of the same compound?
A: 90.5%

Q: What about the viability, T/C [19] of the same compound?
A: 99.7%

Q: And the viability, T/C [20]?
A: 98.5%

Q: What about the viability, T/C [21] of the same compound?
A: 100%

Q: What about the viability, T/C [22] of the same compound?
A: 97.3%

Q: And the viability, T/C [23]?
A: 106%

Q: What about the viability, T/C [24] of the same compound?
A: 91.4%

Q: What about the viability, T/C [25] of the same compound?
A: 102%

Q: What about the viability, T/C [26] of the same compound?
A: 98.8%

Q: What about the viability, T/C [27] of the same compound?
A: 107%

Q: And the viability, T/C [28]?
A: 99.8%

Q: What about the viability, T/C [29] of the same compound?
A: 106%

Q: What about the viability, T/C [30] of the same compound?
A: 99.2%

Q: What about the viability, T/C [31] of the same compound?
A: 97.9%

Q: And the viability, T/C [32]?
A: 96.6%

Q: What about the viability, T/C [33] of the same compound?
A: 105%

Q: And the viability, T/C [34]?
A: 109%

Q: And the viability, T/C [35]?
A: 106%

Q: And the viability, T/C [36]?
A: 101%
